The record followed here is PMC4344389 (Journal of medicinal chemistry, 2015).

The target of this assay is T1, ALDH2 (Homo sapiens, UniProt P05091).
T1 sequence (P05091 18-517): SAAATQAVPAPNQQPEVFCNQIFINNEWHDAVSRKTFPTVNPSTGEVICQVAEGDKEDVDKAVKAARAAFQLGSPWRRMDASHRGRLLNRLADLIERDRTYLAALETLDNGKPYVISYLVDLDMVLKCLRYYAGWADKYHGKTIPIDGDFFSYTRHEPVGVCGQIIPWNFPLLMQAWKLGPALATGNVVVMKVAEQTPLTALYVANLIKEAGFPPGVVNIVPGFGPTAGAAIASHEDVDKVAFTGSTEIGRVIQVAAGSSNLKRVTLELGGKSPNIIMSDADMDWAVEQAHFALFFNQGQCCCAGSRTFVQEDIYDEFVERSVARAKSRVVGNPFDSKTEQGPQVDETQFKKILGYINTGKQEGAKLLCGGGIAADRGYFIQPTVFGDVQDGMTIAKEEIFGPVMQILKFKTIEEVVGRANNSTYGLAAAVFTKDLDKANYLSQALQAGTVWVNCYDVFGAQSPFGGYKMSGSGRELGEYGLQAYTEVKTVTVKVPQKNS
Put plainly: Aldehyde dehydrogenase activity assay, propionaldehyde oxidation. The settings on record: 20 µM compound. The assay is classed as biochemical.

Turning to `CC(C)CCn1c(CN2CCN(C(=O)c3ccco3)CC2)nc2c1c(=O)n(C)c(=O)n2C` [CM026], the “effect on ALDH2” value is listed as “no effect”.
